From patent US20100212218A1, “5-(SUBSTITUTED METHYL) 2-METHYLFURAN” (FURANIX TECHNOLOGIES B.V., priority 2007, published 2010)

Assay: Fuel solubility: miscibility in blends with commercial diesel
Format: physicochemical
Text: Fuel solubility is a primary concern for diesel fuel applications. Not all highly polar oxygenates have good solubility in the current commercial diesel fuels.

[1] = all blend ratios with commercial diesel

| Structure (SMILES) | miscibility with commercial diesel (5 vol % blend with commercial diesel) | miscibility with commercial diesel (25 vol % blend with commercial diesel) | miscibility with commercial diesel (40 vol % blend with commercial diesel) | miscibility with commercial diesel [1] |
| --- | --- | --- | --- | --- |
| CCOCc1ccc(C=O)o1 [EMF, 5-(ethoxymethyl)furfural] | completely miscible | phase separation occurs | phase separation occurs |  |
| Cc1ccc(COC(C)(C)C)o1 [5-(tertbutoxymethyl)-2-methylfuran] |  |  |  | miscible in all blend ratio's |
| CCOCc1ccc(C)o1 [5-(ethoxymethyl)-2-methylfuran] |  |  |  | miscible in all blend ratio's |
